Results taken from patent publication US9902736B2, “1-oxo/acylation-14-acylated oridonin derivative, preparation method therefor and application thereof” (HANGZHOU BENSHENG PHARMACEUTICAL CO., LTD., priority 2012, dated 2018).
In brackets after ≈: the same amount, converted by molar mass.

Tests used:
Kasumi-1 = assay: Leukemia cell growth inhibition, MTT, 72 h; type: cell-based; settings: Homo sapiens
How it was run: (§1)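 6000 cells per well were seeded, and the next day test compounds were added at a range of concentrations. Plates were kept at 37° C in 5% CO2 for 72 hours before viable cells were measured by MTT. K562/ADR is a drug-resistant CML line; H9 and Jurkat are ALL; Kasumi-1 is AML-M2.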

K562/ADR = assay: Leukemia cell growth inhibition, MTT, 72 h; type: cell-based; settings: Homo sapiens
How it was run: as §1

Hep-2 = assay: Solid tumor cell growth inhibition, MTT, 72 h; type: cell-based, human; settings: Homo sapiens, HEp-2; 72 h, MTT
How it was run: (§2)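 Human tumor cells were seeded at 6000 per well in DMEM High Glucose with 10% fetal bovine serum and allowed to settle for 24 hours at 37° C under 5% CO2. Compounds were then added at a range of concentrations before viable cell concentration was determined.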

Hela = assay: Solid tumor cell growth inhibition, MTT, 72 h; type: cell-based, human; settings: Homo sapiens, HeLa; 72 h, MTT
How it was run: as §2

CNE = assay: Solid tumor cell growth inhibition, MTT, 72 h; type: cell-based, human; settings: Homo sapiens, CNE; 72 h, MTT
How it was run: as §2

MGC-803 = assay: Solid tumor cell growth inhibition, MTT, 72 h; type: cell-based, human; settings: Homo sapiens, MGC-803; 72 h, MTT
How it was run: as §2

Hep G2 = assay: Solid tumor cell growth inhibition, MTT, 72 h; type: cell-based; settings: Homo sapiens, HepG2
How it was run: as §2

Becap-37 = assay: Solid tumor cell growth inhibition, MTT, 72 h; type: cell-based; settings: Homo sapiens
How it was run: as §2

PC-3 = assay: Solid tumor cell growth inhibition, MTT, 72 h; type: cell-based; settings: Homo sapiens
How it was run: as §2

CaEs-17 = assay: Solid tumor cell growth inhibition, MTT, 72 h; type: cell-based; settings: Homo sapiens, CaEs17
How it was run: as §2

MG-63 = assay: Solid tumor cell growth inhibition, MTT, 72 h; type: cell-based; settings: Homo sapiens
How it was run: as §2

PANC-1 = assay: Solid tumor cell growth inhibition, MTT, 72 h; type: cell-based; settings: Homo sapiens
How it was run: as §2

U87-MG = assay: Solid tumor cell growth inhibition, MTT, 72 h; type: cell-based; settings: Homo sapiens, U-87 MG
How it was run: as §2

A549 = assay: Solid tumor cell growth inhibition, MTT, 72 h; type: cell-based; settings: Homo sapiens
How it was run: as §2

RKO = assay: Solid tumor cell growth inhibition, MTT, 72 h; type: cell-based; settings: Homo sapiens
How it was run: as §2

SK-OV-3 = assay: Solid tumor cell growth inhibition, MTT, 72 h; type: cell-based; settings: Homo sapiens, SK-OV-3, 72 h, MTT
How it was run: as §2

Jurkat = assay: Leukemia cell growth inhibition, MTT, 72 h; type: cell-based, human; settings: Homo sapiens, Jurkat; 72 h, MTT
How it was run: as §1

NB4 = assay: Leukemia cell growth inhibition, MTT, 72 h; type: cell-based, human; settings: Homo sapiens, NB-4; 72 h, MTT
How it was run: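 MTT read-out of viable cell concentration after 72 hours of exposure at 37° C under 5% CO2. Compounds were dosed at several concentrations one day after plating 6000 cells per well.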

H9 = assay: Leukemia cell growth inhibition, MTT, 72 h; type: cell-based, human; settings: Homo sapiens, H9; 72 h, MTT
How it was run: as §1

RPMI 8226 = assay: Multiple myeloma cell growth inhibition, MTT, 72 h; type: cell-based; settings: Homo sapiens
How it was run: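 Growth inhibition by MTT after 72 h drug exposure (37 °C, 5% CO2) over a concentration range of oridonin derivatives. RPMI 8226 cells plated at 6000 per well and dosed the following day.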

C=C1C(=O)[C@]23[C@H](O)[C@H]1CC[C@H]2[C@@]12CO[C@]3(O)[C@@H](O)[C@@H]1C(C)(C)CC[C@@H]2O [OR, Oridonin]
IC50 (Kasumi-1): 1.32 µg/mL (≈ 3.62 µM)
IC90 (Kasumi-1): 3.72 µg/mL (≈ 10.2 µM)
IC50 (K562/ADR): 1.32 µg/mL (≈ 3.62 µM)
IC90 (K562/ADR): 3.46 µg/mL (≈ 9.49 µM)
IC50 (Hep-2): 4.66 µg/mL (≈ 12.8 µM)
IC90 (Hep-2): 7.99 µg/mL (≈ 21.9 µM)
IC50 (Hela): 5.22 µg/mL (≈ 14.3 µM)
IC90 (Hela): 10.7 µg/mL (≈ 29.4 µM)
IC50 (CNE): 5.45 µg/mL (≈ 15 µM)
IC90 (CNE): 10.5 µg/mL (≈ 28.9 µM)
IC50 (MGC-803): 5.88 µg/mL (≈ 16.1 µM)
IC90 (MGC-803): 7.95 µg/mL (≈ 21.8 µM)
IC50 (Hep G2): 6.77 µg/mL (≈ 18.6 µM)
IC90 (Hep G2): 13.1 µg/mL (≈ 36 µM)
IC50 (Becap-37): 5.06 µg/mL (≈ 13.9 µM)
IC90 (Becap-37): 12.9 µg/mL (≈ 35.5 µM)
IC50 (PC-3): 7.94 µg/mL (≈ 21.8 µM)
IC90 (PC-3): 13 µg/mL (≈ 35.6 µM)
IC50 (CaEs-17): 3.31 µg/mL (≈ 9.08 µM)
IC90 (CaEs-17): 6.86 µg/mL (≈ 18.8 µM)
IC50 (MG-63): 1.86 µg/mL (≈ 5.1 µM)
IC90 (MG-63): 5.6 µg/mL (≈ 15.4 µM)
IC50 (PANC-1): 9.1 µg/mL (≈ 25 µM)
IC90 (PANC-1): 16 µg/mL (≈ 43.9 µM)
IC50 (U87-MG): 2.58 µg/mL (≈ 7.08 µM)
IC90 (U87-MG): 6.67 µg/mL (≈ 18.3 µM)
IC50 (A549): 13.7 µg/mL (≈ 37.6 µM)
IC90 (A549): > 16 µg/mL
IC50 (RKO): 2.24 µg/mL (≈ 6.15 µM)
IC90 (RKO): 3.96 µg/mL (≈ 10.9 µM)
IC50 (SK-OV-3; read-out: IC50 SK-OV-3): 7.94 µg/mL (≈ 21.8 µM)
IC90 (SK-OV-3; read-out: IC90 SK-OV-3): 13 µg/mL (≈ 35.6 µM)
IC50 (Jurkat): 1.89 µg/mL (≈ 5.19 µM)
IC90 (Jurkat): 3.95 µg/mL (≈ 10.8 µM)
IC50 (NB4): 0.78 µg/mL (≈ 2.14 µM)
IC90 (NB4): 2.4 µg/mL (≈ 6.59 µM)
IC50 (H9): 1.36 µg/mL (≈ 3.73 µM)
IC90 (H9): 3.57 µg/mL (≈ 9.8 µM)
IC50 (RPMI 8226): 2.73 µg/mL (≈ 7.49 µM)
IC90 (RPMI 8226): 5.68 µg/mL (≈ 15.6 µM)
